Experimental data as given in patent publication US20140349922A1 (priority 2011, published 2014).

Tests used:
[1] = DIO mice, fasting glucose and fasting insulin after single dose, experiment #1 (Example 7); type: in vivo; conditions: experiment #1, day 2
Protocol: (§1) On the morning of day 1 the mice were dosed followed by an overnight fasting. On days 2, 24 h following administration (groups A-E) or prior to the morning dosing (groups F-H), the mice were sampled for fasting glucose and fasting insulin.
In this set of experiments two independent in vivo studies were carried out. The first experiment included 8 groups (n=8) of DIO mice that were dosed for 2 days as follows: […]

[2] = DIO mice, fasting glucose and fasting insulin after single dose, experiment #2 (Example 7); type: in vivo; conditions: experiment #2, day 2; PEG-OXM single SC 6000 nmol/kg; Liraglutide 200 μg/kg bid
Protocol: as §1
The second experiment included 7 groups (n=7) of DIO mice that were dosed for 2 days as follows: […]

[3] = Diet-induced obesity mice model, Study 1: body weight and food intake; type: in vivo, C57BL/6J mice; conditions: SC, 7 days dosing, OXM 5000 nmol/kg b.i.d; for Body weight loss on Day 8 compared to control group: PEG40-FMS-OXM 5000 nmol/kg Days 1, 3, 5, 7, Sibutramine 20 mg/kg b.i.d
Protocol: Data are adjusted means (n=10). SEMs are calculated from the residuals of the statistical model. Mice were dosed for 7 days started on Day 1. […] Significant differences vs. appropriate vehicle: *p<0.05, **p<0.01, ***p<0.001. Percentage values indicate difference from appropriate vehicle group on Day 8 (i.e. after 7 days dosing).
Measurements of body weight and food intake were performed daily until Day 8. The final measurement of body weight was carried out on Day 12.
Body weight and food intake are expressed as mean values±SEM.

[4] = IP glucose tolerance test (IPGTT); type: in vivo, C57BL/6 mice; conditions: OXM and PEG40-EMCS-OXM 333 nmol/kg 15 min before glucose, PEG40-Fmoc-OXM […] peptide content 2 hrs before, vs vehicle
Protocol: Blood glucose levels were measured by tail vein sampling prior to glucose administration and 10, 20, 30, 60 and 120 min after glucose administration using a handheld glucometer.
Blood glucose levels were measured by tail vein sampling prior to glucose administration and 10, 20, 30, 60 and 120 min after to glucose administration using a handheld glucometer.

[5] = DIO mouse model, 29 days dosing (Example 6): body weight; type: in vivo, C57BL/6J mice; conditions: SC 6,000 nmol/kg; PEG conjugates weekly, native OXM twice per day
[6] = biological target: CHO-K1 cells over-expressing GLP-1 receptor (Homo sapiens, UniProt P43220); conditions: rat serum 1%
Sequence of CHO-K1 cells over-expressing GLP-1 receptor (P43220 24-463): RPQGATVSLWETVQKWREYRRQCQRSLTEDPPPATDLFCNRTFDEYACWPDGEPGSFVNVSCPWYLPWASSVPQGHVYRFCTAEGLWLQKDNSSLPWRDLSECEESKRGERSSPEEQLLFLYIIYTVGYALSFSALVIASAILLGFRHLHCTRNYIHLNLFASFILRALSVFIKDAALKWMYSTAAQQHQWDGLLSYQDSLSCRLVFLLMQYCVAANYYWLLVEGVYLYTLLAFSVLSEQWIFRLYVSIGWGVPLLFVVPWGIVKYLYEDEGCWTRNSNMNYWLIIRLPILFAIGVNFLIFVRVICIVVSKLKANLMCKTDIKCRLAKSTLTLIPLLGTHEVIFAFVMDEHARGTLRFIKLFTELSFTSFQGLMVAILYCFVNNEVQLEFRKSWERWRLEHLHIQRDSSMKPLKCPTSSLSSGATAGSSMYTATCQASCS
Protocol: Cells cAMP concentrations were quantified by HTRF assay (Cisbio 62AM4PEB) and EC50 parameter was analyzed by PRISM software.
Cells' cAMP concentrations were quantified by HTRF assay (Cisbio 62AM4PEB), and the EC50 parameter was analyzed by PRISM software.

[7] = single SC 6,000 nmol/kg (OXM b.i.d)

Q: For `CCCCCCCCCCCCCCCC(=O)N[C@@H](CCC(=O)NCCCC[C@H](NC(=O)[C@H](C)NC(=O)[C@H](C)NC(=O)[C@H](CCC(N)=O)NC(=O)CNC(=O)[C@H](CCC(=O)O)NC(=O)[C@H](CC(C)C)NC(=O)[C@H](Cc1ccc(O)cc1)NC(=O)[C@H](CO)NC(=O)[C@H](CO)NC(=O)[C@@H](NC(=O)[C@H](CC(=O)O)NC(=O)[C@H](CO)NC(=O)[C@@H](NC(=O)[C@H](Cc1ccccc1)NC(=O)[C@@H](NC(=O)CNC(=O)[C@H](CCC(=O)O)NC(=O)[C@H](C)NC(=O)[C@@H](N)Cc1cnc[nH]1)[C@@H](C)O)[C@@H](C)O)C(C)C)C(=O)N[C@@H](CCC(=O)O)C(=O)N[C@@H](Cc1ccccc1)C(=O)N[C@H](C(=O)N[C@@H](C)C(=O)N[C@@H](Cc1c[nH]c2ccccc12)C(=O)N[C@@H](CC(C)C)C(=O)N[C@H](C(=O)N[C@@H](CCCNC(=N)N)C(=O)NCC(=O)N[C@@H](CCCNC(=N)N)C(=O)NCC(=O)O)C(C)C)[C@@H](C)CC)C(=O)O` [Liraglutide], which Fasting glucose level ([1]; PEG-OXM single SC 6,000 nmol/kg on day 1, Liraglutide 200 μg/kg b.i.d) is on record?
A: 6.06 mM

Q: And the “Fasted plasma insulin level” value ([1]; PEG-OXM single SC 6,000 nmol/kg, Liraglutide 200 μg/kg b.i.d)?
A: 4.4 ng/mL

Q: What about the “Fasted plasma insulin level” value [2] of the same molecule?
A: 3 ng/mL

Q: What about the Fasting glucose level [2] of the same molecule?
A: 6.7 mM

Q: With `CC(C)CC(N(C)C)C1(c2ccc(Cl)cc2)CCC1` (stereo not drawn) [Sibutramine] as the molecule, how does the “Body weight loss on Day 8 compared to control group” value [3] read?
A: 15.6%

Q: Which “Induction of glucose tolerance (blood glucose after IP glucose 1.5 gr/kg)” value [4] does the source give for Oxyntomodulin [OXM] here?
A: minor effect on the glucose tolerance

Q: And the “Body weight loss on Day 8 compared to control group” value [3]?
A: 6%

Q: And the “Inhibition of food intake” value ([3]; PEG40-FMS-OXM 5000 nmol/kg every other day)?
A: statistically significant inhibition of food intake

Q: And the “Weight loss during a 30-day period” value [5]?
A: 17%

Q: What about the “Fasting glucose compared to vehicle” value [1, 7] of the same molecule?
A: did not show any significant difference

Q: And the “Fasting plasma insulin compared to controls” value [1, 7]?
A: did not show any significant difference

Q: What about the “cAMP activity after incubation in rat serum versus without serum” value [6] of the same molecule?
A: reduced activity
